Values joined by “and” are separate entries in the source; they are usually repeats but may differ in a detail not shown here. Equal values may be shown once.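 These data come from cells grown in 96-well plates and exposed to compound for 48 hours at five concentrations. GI50 marks 50% less growth. At the TGI there is no net growth.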
Tests used:
Assay in all cases: NCI tumour cell line growth inhibition, 48 h
[1] = test system: DLD-1 colon
[2] = test system: KM20L2 colon
[3] = test system: EKVX NSCLC
[4] = test system: HS 578T breast
[5] = test system: HCT-116 colon
[6] = test system: LOX IMVI melanoma
[7] = test system: HT29 colon
[8] = test system: TK-10 renal
[9] = test system: COLO 205 colon
[10] = test system: SW-620 colon
[11] = test system: T-47D breast
[12] = test system: OVCAR-4 ovarian
[13] = test system: OVCAR-8 ovarian
[14] = test system: NCI-H460 lung
[15] = test system: HCC-2998 colon
[16] = test system: HL-60(TB) leukemia
[17] = test system: MCF7 breast
[18] = test system: A498 renal
[19] = test system: SF-295 CNS
[20] = test system: SF-268 CNS
[21] = test system: P388/ADR leukemia
[22] = test system: K-562 leukemia
[23] = test system: SNB-75 CNS
[24] = test system: SNB-19 CNS
[25] = test system: UO-31 renal
[26] = test system: HCT-15 colon
[27] = test system: NCI-H522 lung
[28] = test system: P388 leukemia
[29] = test system: RXF 393 renal
[30] = test system: OVCAR-3 ovarian
[31] = test system: NCI-H23 lung
[32] = test system: ACHN renal
[33] = test system: SN12K1 renal
[34] = test system: LXFL 529 NSCLC
[35] = test system: SN12C renal
[36] = test system: XF 498 CNS
[37] = test system: RPMI-8226 leukemia
[38] = test system: M14 melanoma
[39] = test system: UACC-62 melanoma
[40] = test system: DMS 114 small cell lung
[41] = test system: HOP-92 NSCLC
[42] = test system: DMS 273 small cell lung
[43] = test system: SNB-78 CNS
[44] = test system: HOP-62 NSCLC
[45] = test system: KM12 colon
[46] = test system: CCRF-CEM leukemia
[47] = test system: NCI/ADR-RES ovarian
[48] = test system: SF-539 CNS
[49] = test system: PC-3 prostate
[50] = test system: CAKI-1 renal
[51] = test system: MDA-MB-435
[52] = test system: A549 NSCLC
[53] = test system: U251 CNS
[54] = test system: SK-MEL-2 melanoma
[55] = test system: HOP-18 NSCLC
[56] = test system: NCI-H226 lung
[57] = test system: DU-145 prostate
[58] = test system: IGROV1 ovarian
[59] = test system: SK-MEL-28 melanoma
[60] = test system: MALME-3M melanoma
[61] = test system: SK-OV-3 ovarian
[62] = test system: OVCAR-5 ovarian
[63] = test system: MOLT-4 leukemia
[64] = test system: BT-549 breast
[65] = test system: M19-MEL melanoma
[66] = test system: SR leukemia
[67] = test system: UACC-257 melanoma
[68] = test system: SK-MEL-5 melanoma
[69] = test system: 786-0 renal

`C=CC(=O)NC(N)=NC#N` was tested, and the TGI [1] was 311 µM, the TGI [2] was 287 µM and the TGI [5] was 329 µM. The GI50 [6] was 129 µM, the TGI [6] was 273 µM and the TGI [7] was 372 µM. It also gave a TGI [8] of 272 µM, a TGI [9] of 280 µM and a GI50 [10] of 160 µM. For the same molecule, the TGI [10] was 314 µM, the TGI [12] was 304 µM and the TGI [13] was 484 µM. The TGI [14] was 360 µM, the TGI [15] was 329 µM and the GI50 [16] was 132 µM. The TGI [16] was > 66.3 µM and 327 µM, the TGI [18] was 285 µM and the TGI [19] was 843 µM. It also gave a TGI [20] of 260 µM, a TGI [21] greater than 58 µM and a GI50 [22] of 136 µM. It also gave a TGI [22] of 445 µM, a TGI [23] of 289 µM and a TGI [24] of 523 µM. It also gave a TGI [25] of 333 µM, a TGI [26] of 258 µM and a GI50 [27] of 1.95 µM. For the same molecule, the TGI [27] was 36.9 µM and 4.09 µM, the TGI [28] was greater than 43.5 µM and the GI50 [29] was 149 µM. For the same molecule, the TGI [29] was 98.1 µM and 286 µM, the TGI [30] was 310 µM and the TGI [69] was 300 µM. It also gave a TGI [31] of 344 µM, a TGI [32] of 245 µM and a TGI [34] of 250 µM. It also gave a TGI [35] of 293 µM, a GI50 [36] of 157 µM and a TGI [36] of 313 µM. The GI50 [37] was 91.6 µM, the TGI [37] was > 67.3 µM and 446 µM and the TGI [38] was 292 µM. For the same molecule, the TGI [39] was 294 µM, the TGI [40] was 250 µM and the GI50 [41] was 103 µM. For the same molecule, the TGI [41] was > 63.7 µM and 252 µM, the TGI [43] was 399 µM and the TGI [44] was 423 µM. The GI50 [46] was 130 µM, the TGI [46] was > 66.1 µM and 317 µM and the TGI [48] was 303 µM. The GI50 [50] was 171 µM, the TGI [50] was 361 µM and the TGI [52] was 345 µM. The TGI [53] was 296 µM, the TGI [55] was 283 µM and the TGI [56] was 353 µM. For the same molecule, the TGI [58] was 330 µM, the TGI [59] was 261 µM and the TGI [60] was 303 µM. For the same molecule, the TGI [61] was 315 µM, the TGI [62] was 317 µM and the GI50 [63] was 197 µM. The TGI [63] was 555 µM, the TGI [65] was 278 µM and the TGI [67] was 249 µM. For the same molecule, the TGI [68] was 301 µM.

Source: PubChem BioAssay (NCI)
